In the NIST ThermoML archive (doi:10.1021/je500305u):
Numbers after ± are expanded uncertainties.

Test: mn = molality of the nth substance listed, in mol/kg
Settings: Liquid, Vibrating tube method

NCC(=O)[O-].[K+] [potassium glycinate] + O
mass density [kg/m3], 101 kPa
Settings | m1 = 0.99 | m1 = 1.78
293 K | 1065 ± 53 | 1130 ± 58
298 K | 1064 ± 53 | 1128 ± 57
303 K | 1062 ± 53 | 1126 ± 57
308 K | 1060 ± 53 | 1124 ± 57
313 K | 1058 ± 53 | 1121 ± 57
318 K | 1056 ± 53 | 1119 ± 57
323 K | 1053 ± 53 | 1116 ± 57
328 K | 1051 ± 53 | 1114 ± 57
333 K | 1048 ± 52 | 1111 ± 57
338 K | 1045 ± 52 | 1108 ± 56
343 K | 1042 ± 52 | 1105 ± 56
348 K | 1039 ± 52 | 1102 ± 56
353 K | 1036 ± 52 | 1099 ± 56
358 K | 1033 ± 52 | 1096 ± 56
363 K | 1030 ± 52 | 1093 ± 56
373 K | 1023 ± 51 | 1086 ± 55
393 K | 1007 ± 50 | –

NCCS(=O)(=O)[O-].[K+] [potassium taurate] + O
mass density [kg/m3]
Settings | m1 = 0.89 | m1 = 1.6
283 K | 1084 ± 54 | –
288 K | 1083 ± 54 | –
293 K | 1081 ± 54 | 1145 ± 58
298 K | 1079 ± 54 | 1143 ± 58
303 K | 1078 ± 54 | 1141 ± 58
308 K | 1076 ± 54 | 1139 ± 58
313 K | 1073 ± 54 | 1136 ± 58
318 K | 1071 ± 54 | 1134 ± 58
323 K | 1069 ± 53 | 1131 ± 58
328 K | 1066 ± 53 | 1129 ± 57
333 K | 1064 ± 53 | 1126 ± 57
338 K | 1061 ± 53 | 1123 ± 57
343 K | 1058 ± 53 | 1120 ± 57
348 K | – | 1117 ± 56
353 K | 1051 ± 53 | 1114 ± 57
358 K | – | 1111 ± 56
363 K | – | 1108 ± 56
373 K | 1037 ± 52 | 1101 ± 56
393 K | 1021 ± 51 | 1086 ± 55
